Converted amounts (≈) assume the structure as drawn. The source made the active and inactive calls. No cut-off for these calls is given here.
How the values were obtained:
[1] = Inhibition of Plasmodium falciparum DHODH expressed in Escherichia coli BL21-DE3 using L-dihydroorotate as substrate by steady-state DCIP method
[2] = Inhibition of Plasmodium vivax DHODH expressed in Escherichia coli BL21-DE3 using L-dihydroorotate as substrate by steady-state DCIP method
Plasmodium falciparum [3] = test: microbe, parasite or virus in culture; conditions: 3D7, 72 h
[4] = molecular target: Dihydroorotate dehydrogenase (quinone), mitochondrial (Homo sapiens, UniProt Q02127); type: ADME
[5] = Lipophilicity, logD of compound at pH 7.4; type: physicochemical; conditions: buffer
Plasmodium falciparum [6] = test: Antimalarial activity against Plasmodium falciparum 3D70087/N9 infected in orally dosed NOD-SCID IL2Rgamma null mouse assessed as parasitemia level in human red blood cells at 10 to 100 mg/kg, po administered days after 1 day post infection twice daily for 6 days measured on day 7 by flow cytometry; type: functional, organism-based; conditions: dose 10-100 mg/kg
physchem [7] = conditions: FaSSIF, pH 6.5
in vitro [8] = conditions: rat, plasma
physchem [9] = conditions: FaSSGF, pH 1.6
[10] = Plasma clearance in Sprague-Dawley rat at […], iv measured up to 24 hrs; type: ADME, organism-based; conditions: dose 2.6 mg/kg
[11] = Intrinsic clearance in mouse liver microsomes at 1 uM measured up to 4 hrs by LC-MS analysis; type: ADME, Microsome
[12] = Tmax in Sprague-Dawley rat at 19 mg/kg, po measured up to 24 hrs; type: ADME, organism-based; conditions: in vivo
[13] = Unbound AUC in orally dosed NOD-SCID IL2Rgamma null mouse infected with Plasmodium falciparum 3D70087/N9 administered days after 3 post infection once daily for 4 days measured on day 7 by flow cytometry; type: ADME, organism-based; conditions: in vivo, po, 96 h, time 4 day
Plasmodium falciparum [14] = test: Antimalarial activity against Plasmodium falciparum 3D70087/N9 infected in NOD-SCID IL2Rgamma null mouse assessed as parasitemia level at 10 mg/kg, po administered days after 3 post infection once daily for 4 days measured on day 7 by flow cytometry; type: functional, organism-based; conditions: time 4.0 day
[15] = Half life in Swiss mouse at 10 mg/kg, po measured up to 24 hrs by LC-MS analysis; type: ADME, organism-based; conditions: in vivo
[16] = AUC (0 to infinity) in Swiss mouse at 10 mg/kg, po measured up to 24 hrs by LC-MS analysis; type: ADME, organism-based; parameters: route oral, dose 10 mg/kg, time <=24; conditions: in vivo
[17] = Tmax in Swiss mouse at 10 mg/kg, po measured up to 24 hrs by LC-MS analysis; type: ADME, organism-based; conditions: in vivo
[18] = Cmax in Sprague-Dawley rat at 19 mg/kg, po measured up to 24 hrs; type: ADME, organism-based; parameters: route oral, dose 19 mg/kg, time <=24; conditions: in vivo
[19] = Binding affinity to microsome (unknown origin); type: ADME; conditions: microsomes
in vitro [20] = conditions: human, plasma
Albumin = Albumin (Bos taurus, UniProt P02769); test: Binding affinity to bovine serum albumin by Albumax assay; type: ADME; conditions: cattle, isolated protein
physchem [21] = conditions: FeSSIF, pH 5.8
in vitro [22] = conditions: mouse, plasma
physchem [23] = conditions: PBS, pH 7.4
[24] = Unbound intrinsic clearance in mouse liver microsomes at 1 uM measured up to 4 hrs by LC-MS analysis; type: ADME, Microsome
[25] = Volume of distribution at steady state in Swiss mouse at 1 mg/kg, iv measured up to 24 hrs by LC-MS analysis; type: ADME, organism-based; conditions: in vivo, read-out: Vdss
Plasmodium falciparum [26] = test: Antimalarial activity against Plasmodium falciparum 3D70087/N9 infected in orally dosed NOD-SCID IL2Rgamma null mouse assessed as parasitemia level in human red blood cells at 16.7 mg/kg, po administered days after 1 day post infection twice daily for 6 days measured on day 7 by flow cytometry; type: functional, organism-based; conditions: time 6.0 day
[27] = Cmax in Swiss mouse at 10 mg/kg, po measured up to 24 hrs by LC-MS analysis; type: ADME, organism-based; parameters: route oral, dose 10 mg/kg, time <=24; conditions: in vivo
Plasmodium falciparum [28] = test: Antiplasmodial activity against Plasmodium falciparum 3D7 Uganda infected in human erythrocytes assessed as parasite killing using albumax media measured after 72 hrs by SYBR Green assay; type: functional, organism-based; conditions: 3D7, 72 h
[29] = AUC (0 to infinity) in Sprague-Dawley rat at 19 mg/kg, po measured up to 24 hrs; type: ADME, organism-based; parameters: route oral, dose 19 mg/kg, time <=24; conditions: in vivo
[30] = Volume of distribution at steady state in Sprague-Dawley rat at […], iv measured up to 24 hrs; type: ADME, organism-based; conditions: in vivo, dose 2.6 mg/kg, read-out: Vdss
in vitro [31] = conditions: human, caco-2, pH 7.4
[32] = Oral bioavailability in Swiss mouse at 10 mg/kg measured up to 24 hrs by LC-MS analysis; type: ADME, organism-based; conditions: in vivo
Plasmodium falciparum [33] = test: Antiplasmodial activity against Plasmodium falciparum Dd2 Uganda infected in human erythrocytes assessed as parasite killing using albumax media measured after 72 hrs by SYBR Green assay; type: functional, organism-based; conditions: Dd2, 72 h
Plasmodium falciparum [34] = test: Antiplasmodial activity against Plasmodium falciparum Uganda field isolated from patients infected in human erythrocytes assessed as parasite killing using albumax media measured after 72 hrs by SYBR Green assay; type: functional, organism-based
in vitro [35] = conditions: human, caco-2, pH 7.4; remark: listed apart in the source
[36] = Plasma clearance in Swiss mouse at 1 mg/kg, iv measured up to 24 hrs by LC-MS analysis; type: ADME, organism-based
Plasmodium falciparum [37] = test: Antimalarial activity against Plasmodium falciparum 3D70087/N9 infected in orally dosed NOD-SCID IL2Rgamma null mouse assessed as parasitemia level administered days after 3 post infection once daily for 4 days measured on day 7 by flow cytometry; type: functional; conditions: time 4 day
[38] = Apparent half life in Sprague-Dawley rat at 19 mg/kg, po measured up to 24 hrs; type: ADME, organism-based; conditions: in vivo, read-out: t1/2(app) (converted)
[39] = Oral bioavailability in Sprague-Dawley rat at 19 mg/kg measured up to 24 hrs; type: ADME, organism-based; conditions: in vivo
Plasmodium falciparum [40] = system: Plasmodium falciparum
[41] = Oral bioavailability in mouse at 19 mg/kg; type: ADME, organism-based; conditions: in vivo

Chain of Dihydroorotate dehydrogenase (quinone), mitochondrial (Q02127 whole entry): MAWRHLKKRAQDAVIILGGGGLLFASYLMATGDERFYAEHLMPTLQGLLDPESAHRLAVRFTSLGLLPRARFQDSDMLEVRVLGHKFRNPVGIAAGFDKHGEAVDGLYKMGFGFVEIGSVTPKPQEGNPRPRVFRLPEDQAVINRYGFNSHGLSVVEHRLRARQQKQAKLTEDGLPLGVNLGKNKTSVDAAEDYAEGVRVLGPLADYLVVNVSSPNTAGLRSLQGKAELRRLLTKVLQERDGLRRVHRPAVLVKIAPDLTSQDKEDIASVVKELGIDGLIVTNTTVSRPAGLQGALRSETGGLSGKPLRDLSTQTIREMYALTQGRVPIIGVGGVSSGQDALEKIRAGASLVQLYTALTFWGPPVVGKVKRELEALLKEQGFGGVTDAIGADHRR
Chain of Albumin (P02769 whole entry): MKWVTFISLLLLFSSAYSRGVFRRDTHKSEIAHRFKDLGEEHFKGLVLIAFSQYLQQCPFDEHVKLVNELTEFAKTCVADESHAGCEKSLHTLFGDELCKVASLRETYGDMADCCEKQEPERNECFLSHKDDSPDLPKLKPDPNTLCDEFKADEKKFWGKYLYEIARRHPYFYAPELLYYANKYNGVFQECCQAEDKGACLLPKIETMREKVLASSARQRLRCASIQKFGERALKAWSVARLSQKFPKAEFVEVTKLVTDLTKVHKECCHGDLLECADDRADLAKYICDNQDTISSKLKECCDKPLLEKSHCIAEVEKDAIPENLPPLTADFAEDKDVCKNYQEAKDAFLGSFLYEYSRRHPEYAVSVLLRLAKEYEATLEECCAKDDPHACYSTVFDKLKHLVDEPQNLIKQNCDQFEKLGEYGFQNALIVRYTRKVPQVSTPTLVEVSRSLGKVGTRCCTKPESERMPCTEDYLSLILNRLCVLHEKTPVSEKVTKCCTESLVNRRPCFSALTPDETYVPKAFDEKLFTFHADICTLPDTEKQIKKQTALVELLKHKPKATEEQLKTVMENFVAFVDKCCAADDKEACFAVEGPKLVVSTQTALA

For `Cc1cc(C(C)NC(=O)c2[nH]cc(C(C)c3ccc(C(F)(F)F)nc3)c2C)no1` (racemic), the IC50 [1] was 79 nM, the IC50 [2] was 74 nM and the EC50 (Plasmodium falciparum [3]) was 3 nM. It also gave an IC50 [4] of over 100000 nM.
`Cc1c(Cc2cccc3ccncc23)c[nH]c1C(=O)NCC(F)(F)F` gave an IC50 [1] of 35 nM, an IC50 [2] of 17 nM and an EC50 (Plasmodium falciparum [3]) of 9.6 nM. It also gave a logD [5] of under 3.4 and an IC50 [4] of over 100000 nM.
For `Cc1cc(C(C)NC(=O)c2[nH]cc(C(C#N)c3ccc(C(F)(F)F)nc3)c2C)no1` (racemic), the IC50 [1] was 270 nM, the IC50 [2] was 410 nM and the EC50 (Plasmodium falciparum [3]) was 21 nM. It also gave an IC50 [4] of over 100000 nM.
In the case of `Cc1c(Cc2ccc(C(F)(F)F)nc2F)c[nH]c1C(=O)NCC(F)(F)F`, the IC50 [1] is reported as 79 nM, the IC50 [2] is reported as 53 nM and the EC50 (Plasmodium falciparum [3]) is reported as 20 nM. It also gave an IC50 [4] of over 100000 nM.
`Cc1c(C2(c3ccc(C(F)(F)F)nc3)CC2)c[nH]c1C(=O)NC1CC1` showed an IC50 [1] of 19 nM, an IC50 [2] of 11 nM and an EC50 (Plasmodium falciparum [3]) of over 10000 nM. It also gave an IC50 [4] of over 100000 nM.
In the case of `Cc1c(Cc2ccc(C(F)(F)F)cc2)c[nH]c1C(=O)NC(C)c1cc(Br)no1` (racemic), the IC50 [1] is reported as 380 nM, the IC50 [2] is reported as 39 nM and the EC50 (Plasmodium falciparum [3]) is reported as 260 nM. The IC50 [4] was over 100000 nM.
In the case of `Cc1c(-c2c[nH]c3nc(C(F)(F)F)ccc23)c[nH]c1C(=O)NC1CC1`, the IC50 [1] is reported as 120 nM, the IC50 [2] is reported as 10 nM and the EC50 (Plasmodium falciparum [3]) is reported as 13 nM. The IC50 [4] was over 100000 nM.
In the case of `Cc1c(C(=O)NC2CC2)[nH]c(Cl)c1Cc1ccc(C(F)(F)F)nc1`, the IC50 [1] is reported as 120 nM, the IC50 [2] is reported as 17 nM and the EC50 (Plasmodium falciparum [3]) is reported as 32 nM. For the same compound, the IC50 [4] was over 100000 nM.
With `Cc1c(C2(c3ccc(C(F)(F)F)c(C#N)c3)CC2)c[nH]c1C(=O)NC(C)c1nc[nH]n1` (stereo in doubt; form 1) the Activity (Plasmodium falciparum [6]) was “Active”.
`Cc1cc(Nc2ccc(S(F)(F)(F)(F)F)cc2)n2nc(C(F)(F)F)nc2n1` gave a solubility at 5 h (physchem [7]) of 5.1 µg/mL (≈ 12.2 µM), a fraction unbound (in vitro [8]) of 0.025 and a solubility at 1 h (physchem [9]) of 6.8 µg/mL (≈ 16.2 µM). The IC50 [1] was 30 nM, the clearance at 24 h [10] was 6.5 mL/min/kg and the Intrinsic clearance [11] was under 7 µL/min/mg. For the same compound, the Tmax [12] was 7 h, the fAUC [13] was 0.85 µM·h and the Activity (Plasmodium falciparum [14]) was “Active”. For the same compound, the half-life [15] was 2.5 h, the AUC(0-inf) [16] was 22.8 µM·h and the Tmax [17] was 1.2 h. The Cmax [18] was 4 µM, the Activity [19] was 71.7% and the EC50 (Plasmodium falciparum [3]) was 6 nM. It also gave a fraction unbound (in vitro [20]) of 0.002, an Activity (Albumin) of 83.1% and a solubility at 5 h (physchem [21]) of 27.6 µg/mL (≈ 65.8 µM). It also gave a fraction unbound (in vitro [22]) of 0.03, a solubility at 5 h (physchem [23]) of 2 µg/mL (≈ 4.77 µM) and a CL free [24] of under 25 µL/min/mg. For the same compound, the Vd [25] was 2.3 L/kg, the Activity (Plasmodium falciparum [26]) was “Active” and the Cmax [27] was 3.1 µM. It also gave an EC50 (Plasmodium falciparum [28]) of 2.9 nM, an AUC(0-inf) [29] of 120 µM·h and a Vd at 24 h [30] of 5.9 L/kg. For the same compound, the Papp A→B (in vitro [31]) was 54 ×10⁻⁶ cm/s, the bioavailability [32] was 46% and the EC50 (Plasmodium falciparum [33]) was 2.9 nM. The EC50 (Plasmodium falciparum [34]) was 3.7 nM, the Papp B→A (in vitro [35]) was 49 ×10⁻⁶ cm/s and the clearance [36] was 8.2 mL/min/kg. The ED50 (Plasmodium falciparum [37]) was 5.6 mg/kg, the half-life [38] was 16 h and the bioavailability [39] was 57%.
For `Cc1c(Cc2ccc(C(F)(F)F)cc2Br)c[nH]c1C(=O)NC(C)c1nc[nH]n1` (racemic), the IC50 [1] was 950 nM, the IC50 [2] was 260 nM and the EC50 (Plasmodium falciparum [3]) was 990 nM. The IC50 [4] was over 100000 nM.
In the case of `Cc1c(C2(c3ccc(C(F)(F)F)nc3)CC2)c[nH]c1C(=O)NC(C)c1cc(C(N)=O)[nH]n1` (stereo in doubt; form 1), the IC50 [1] is reported as 140 nM, the EC50 (Plasmodium falciparum [40]) is reported as 46 nM and the IC50 [2] is reported as 170 nM. The F [41] was 18%.
`Cc1c(Cc2ccc(C(F)(F)F)nc2)c[nH]c1C(=O)NC(C)c1cc(Br)no1` (racemic) gave an IC50 [1] of 70 nM, an IC50 [2] of 20 nM and an EC50 (Plasmodium falciparum [3]) of 120 nM. It also gave an IC50 [4] of over 100000 nM.

From ChEMBL document CHEMBL4811258, “Potent Antimalarials with Development Potential Identified by Structure-Guided Computational Optimization of a Pyrrole-Based Dihydroorotate Dehydrogenase Inhibitor Series” (J Med Chem, 2021)
